We go through one compound from patent US8691799B2, “Materials and methods for treatment of cancer and identification of anti-cancer compounds” (priority 2001, dated 2014).

One assay concerns the target T1, JAK2 (Homo sapiens, UniProt O60674).
T1 construct: Src, JAK1, and JAK2 were immunoprecipitated from either A549, MDA-MB-468, or v-Src/NIH 3T3 cells; endogenous in cells; host or cells: A549, MDA-MB-468, v-Src transformed NIH 3T3 (immunoprecipitates)
Put plainly: JAK kinase autophosphorylation assay on immunoprecipitates (JAK2). The format is biochemical. Conditions: immunoprecipitates from A549, MDA-MB-468 or v-Src/NIH 3T3 cells; AG490 100 μM, PD180970 2 μM. The protocol: JAK Kinase Assays. A549, MDA-MB-468, and v-Src transformed NIH 3T3 cells were harvested, washed three times in PBS-V (10 mM sodium phosphate, pH 7.4, 137 mM NaCl, 1 mM sodium orthovanadate) then lysed for 30 min on ice in JAK kinase lysis buffer (25 mM Hepes, pH 7.4, 0.1% Triton-X-100, 0.5 mM DTT, 1 mM sodium orthovanadate, 1 mM PMSF, 10 μg/ml aprotinin, 10 μg/ml leupeptin). Samples were spun at high speed to clear, and 800-1000 μg of protein was immunoprecipitated per treatment condition with 50 ng of either JAK1 or JAK2 antibody (Santa Cruz Biotechnology) rocking overnight at 4° C. 25 μl of protein A/G PLUS agarose then was added and rocking continued for 1 hr at 4° C. Samples were spun to collect agarose pellet, and pellet washed twice in wash buffer (50 mM Hepes, pH 7.4, 0.1% Triton-X-100, 0.5 mM DTT, 150 mM NaCl) and once in phosphorylation buffer (50 mM Hepes, pH 7.4, 0.1% Triton-X-100, 0.5 mM DTI, 6.25 mM manganese chloride, 100 mM NaCl). Kinase reactions were performed at 30° C. for 15 min in a final volume of 100 μl of phosphorylation buffer. Samples were pretreated with DMSO control, JSI-124, and control compounds (AG490, 100 μM, and […], 2 μM) before addition of 20 μCi/sample y-[^32P]ATP. Reaction was halted using stop buffer (wash buffer plus 10 mM EDTA), samples spun to collect pellet, then pellet washed once with stop buffer and twice with wash buffer. Samples were then placed in 2×SDS-PAGE sample buffer, boiled at 100° C., and run on 8% SDS-PAGE gels to separate proteins. Autophosphorylation results were visualized by autoradiography.

Assay [1] deals with SRE-dependent pRLSRE renilla luciferase reporter. Nature of the assay: SRE-dependent luciferase reporter assay in v-Src/NIH 3T3 fibroblasts. The class given is cell-based, murine. Conditions: 10 μM, 24-48 hr. The source says:
DNA Binding and Transcription. The STAT3 reporter, pLucTKS3, driving expression of firefly luciferase has been previously described (Turkson, J. et al. Mol. Cell Biol., 1999, 19:7519-7528). The pLucTKS3 plasmid harbors seven copies of a sequence corresponding to the STAT3-specific binding site in the promoter of the human C-reactive protein gene (Zhang, D. et al. J. Biol. Chem., 1996, 271:9503-9509). The STAT3-independent plasmid, pRLSRE, contains two copies of the serum response element (SRE) from the c-fos promoter (Yamauchi, K. et al. J. Biol. Chem., 1993, 268:14597-14600), subcloned into renilla luciferase reporter, pRL-null (Promega Corporation, Madison, Wis.).
Transfection and Generation of Stable Clones. […]
Preparation of Cytosolic Extracts. […] Cells were resuspended in 0.4 ml of low-salt HEPES buffer (10 mM HEPES, pH 7.8, 10 mM KCl, 0.1 mM EGTA, 0.1 mM EDTA, 1 mM PMSF, and 1 mM DTT) for 15 min, lysed by the addition of 20 μl of 10% NP-40, and centrifuged (10,000×g, 30 sec, 4° C.) to obtain the cytosolic supernatant, which was used for luciferase assays (Promega Corporation) measured with a luminometer.
For orientation: Reporter assays use an easily measured gene product as a stand-in for the process of interest.

T1 sequence (O60674 whole entry): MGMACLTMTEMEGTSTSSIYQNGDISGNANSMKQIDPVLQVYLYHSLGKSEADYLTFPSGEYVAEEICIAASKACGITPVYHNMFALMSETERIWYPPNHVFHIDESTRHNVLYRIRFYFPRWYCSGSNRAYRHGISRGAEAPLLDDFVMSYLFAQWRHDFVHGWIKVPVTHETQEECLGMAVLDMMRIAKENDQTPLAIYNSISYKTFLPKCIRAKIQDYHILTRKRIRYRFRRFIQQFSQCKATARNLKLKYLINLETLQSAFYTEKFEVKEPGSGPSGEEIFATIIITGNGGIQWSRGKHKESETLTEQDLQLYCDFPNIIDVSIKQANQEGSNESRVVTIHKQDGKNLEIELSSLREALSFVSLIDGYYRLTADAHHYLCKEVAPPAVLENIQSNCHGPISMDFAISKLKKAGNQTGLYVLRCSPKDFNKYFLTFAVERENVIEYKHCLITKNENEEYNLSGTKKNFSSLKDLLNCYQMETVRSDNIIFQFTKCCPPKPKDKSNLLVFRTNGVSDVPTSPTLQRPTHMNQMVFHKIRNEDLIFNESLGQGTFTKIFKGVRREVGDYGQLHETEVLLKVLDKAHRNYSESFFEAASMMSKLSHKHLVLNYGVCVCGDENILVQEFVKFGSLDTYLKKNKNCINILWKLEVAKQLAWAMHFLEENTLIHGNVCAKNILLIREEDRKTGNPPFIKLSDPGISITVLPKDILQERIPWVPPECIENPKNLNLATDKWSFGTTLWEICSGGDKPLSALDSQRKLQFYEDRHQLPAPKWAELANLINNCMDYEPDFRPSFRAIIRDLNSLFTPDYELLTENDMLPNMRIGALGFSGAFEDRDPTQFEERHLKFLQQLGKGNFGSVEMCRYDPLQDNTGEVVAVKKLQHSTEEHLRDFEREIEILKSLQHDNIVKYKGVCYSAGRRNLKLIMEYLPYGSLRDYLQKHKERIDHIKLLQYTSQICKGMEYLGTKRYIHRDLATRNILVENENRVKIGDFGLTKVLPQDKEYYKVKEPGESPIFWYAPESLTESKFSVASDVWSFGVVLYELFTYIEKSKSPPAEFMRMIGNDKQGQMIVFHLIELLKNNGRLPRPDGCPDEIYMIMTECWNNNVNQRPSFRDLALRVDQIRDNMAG

Consider `CC(C)(O)/C=C/C(=O)[C@](C)(O)[C@H]1[C@H](O)C[C@@]2(C)[C@@H]3CC=C4[C@@H](C=C(O)C(=O)C4(C)C)[C@]3(C)C(=O)C[C@]12C` [JSI-124, cucurbitacin I], for which, at JAK2, the “JAK2 kinase activity (autophosphorylation) in vitro” value is recorded as “not affected”. Also, in assay [1], the “pRLSRE (SRE-dependent) luciferase reporter” value is “without affecting”.
